Measured values as given in patent US20260365692A1, “COMPOSITIONS COMPRISING PROTEINS DISSOLVED IN FLUORINATED SOLVENTS, AND METHODS OF MAKING AND USING THE SAME” (priority 2022, published 2026).

What was measured:
[1] = tested on: seven model proteins (Hb, GFP, BSA, β-Gal, IgG, TFN, URE); assay: Fluorochemical-mediated dispersion of test proteins into perfluorohexane; assay type: physicochemical; conditions: into PFH, 1000:1 molar ratio with protein
Excerpt: Only the rabbit IgG Fc fragment is shown.
For PFAS amphiphiles, the combination of polar head group and fluorophilic tail additionally leads to their preferential assembly at water-fluorous interfaces. Based on these unique properties, it was speculated that PFAS compounds may noncovalently associate with proteins to mediate their phase separation into fluorous media. To test this, a screening assay was developed to qualitatively investigate the binding affinity of a library of perfluorinated chemicals with seven model proteins, which include human hemoglobin (Hb), green fluorescent protein (GFP), bovine serum albumin (BSA), (β-Galactosidase (β-Gal), rabbit serum immunoglobulin (IgG), bovine apo-transferrin (TFN), and urease (URE). This group of model proteins captures an array of physicochemical properties ranging in molecular weight, solvent accessible surface area (SASA), isoelectric point (pI), and hydrodynamic radii. A corresponding perfluorinated small molecule test set was selected to contain a plurality of functional groups, linear perfluorocarbon chain lengths, and cyclic or aromatic geometries (FIGS. 1-7). Selection of these compounds was based on their potential to form noncovalent bonds (i.e., hydrogen or ionic) with the solvent exposed protein surfaces. […] These three linear PFAS chemicals are currently regulated by the US Environmental Protection Agency based on their reproductive, immune, and hepatic toxicity (References: 44-46). In sum, the structural and biochemical diversity represented in the protein and fluorochemical libraries was rationally selected to allow structure-function-performance relationships to be ascertained from binding studies.

[2] = tested on: HepG2 cells; assay: HepG2 MTT viability assay (Example 2); assay type: cell-based, human; conditions: HepG2, 37 °C overnight
Procedure: FIG. 28 depicts a viability assay for HepG2 cells treated with two first generation compounds and two second generation compounds.
Next, viability assays were performed by seeding HepG2 (liver cancer cell line) onto 96 well plates and allowing the cells to adhere overnight. DMEM cell culture media containing various concentrations of each FTag compound were then added, and the plates were incubated at 37 °C overnight. The supernatant was then removed and MTT viability dyes were added to each well and allowed to convert for 2 hours. Dye absorbance for each condition was then compared to positive (20% DMSO) and negative (blank media) controls to calculate % viability (FIG. 28).

[3] = tested on: β-Galactosidase (β-Gal); conditions: into PFH, 1000:1 molar ratio with protein
Excerpt: FIGS. 8A-8G depict fluorochemical-mediated dispersion of test proteins hemoglobin (Hb, FIG. 8A), green fluorescent protein (GFP, FIG. 8B), bovine serum albumin (BSA, FIG. 8C), β-Galactosidase (β-Gal, FIG. 8D), rabbit serum immunoglobulin G (IgG, FIG. 8E), bovine apo-transferrin (TFN, FIG. 8F), and urease (URE, FIG. 8G) into perfluorohexane. […] The compound ‘0’ indicates a control sample absent of an additive. The crystal structure of each protein candidate tested is shown in the inset of each of FIGS. 8A-8G. Only the rabbit IgG Fc fragment is shown.
To investigate PFAS-protein binding avidity, an assay was developed to measure the concentration of protein dispersed into perfluorohexane (PFH) in the presence of each fluorochemical compound (1000:1 molar ratio with protein). Protein dispersion into PFH served as a quantitative measure of PFAS-protein avidity, where the amount of dispersed protein was normalized to its initial concentration to evaluate binding interactions.

[4] = tested on: E. coli; assay: Bacterial contamination of BSA samples with E. coli; conditions: 37 °C overnight
Procedure: FIG. 24A: Diagram of contamination experiment. FIG. 24B: Samples in PBS (top) and PFOc (bottom) after contamination with E. coli.
To model bacterial contamination of samples a hypodermic needle was streaked across a lawn of plated E. coli (FIG. 24A). The contaminated needle was then dipped into PBS or PFOc (containing PFNA) samples with dispersed BSA protein to contaminate, and samples incubated at 37 °C overnight to allow for bacterial growth. An aliquot of the solution was then streaked onto LB-agar plates and incubated at 37 C overnight to allow for bacterial colony formation.

[5] = Temperature-dependent circular dichroism of proteins in PFOc or PBS (Example 4); assay type: physicochemical
Procedure: FIGS. 39A-39B depict temperature-dependent CD spectra of the indicated test protein solubilized in PFOc using the PD-7 dispersant, or PBS as a control.
FIG. 40 depicts the change in minimum CD ellipticity over the 40 °C-85 °C temperature interval for the indicated protein dissolved in either PBS or PFOc.
To determine structural integrity of proteins in aqueous and fluorinated environments at elevated temperatures, circular dichroism (CD) was used to probe secondary structure. Proteins were either diluted in PBS (aqueous) or dispersed in PFOc at the same designated concentrations according to protocol described above. For aqueous samples, dissolved proteins were heated between 40 °C to 90 °C, and their corresponding CD spectra at each temperature was measured. For PFOc samples, each of the PFOc dispersed proteins were subjected to heat treatment at 40, 55, 70, and 85 °C for 15 minutes. After that, dispersed proteins were eluted into PBS before having their CD spectra taken. Data is shown by representative ellipticity at each temperature depicted by distinct colors.

[6] = tested on: E. coli, P. aeruginosa, K. pneumoniae, Methicillin-resistant S. aureus (MRSA), C. albicans; assay: Contamination of BSA formulations by bacterial and fungal pathogens
Excerpt: FIG. 53 depicts representative photographs of agar plates streaked with BSA formulations in PBS (top panel) or PFOc (lower panel) contaminated with the indicated pathogen. MRSA=methicillin resistant Staphylococcus aureus.
Evaluating PFOc Protein Formulation Resilience Against Contaminants Aqueous protein formulations can be compromised by contaminating pathogens, or the biologic inactivated by exposure to environmental disinfectants and acids. In the context of bacterial and fungal contamination, it was hypothesized that removal of the water solvent required for microorganismal survival should make the PFOc protein formulations intrinsically sterile. A hypodermic needle was streaked across a lawn of the human bacterial pathogens E. coli, P. aeruginosa, K. pneumoniae or Methicillin-resistant S. aureus (MRSA), as well as the human fungal pathogen C. albicans prepared on agar. The contaminated needle was then submerged into BSA protein formulations prepared in either PBS or PFOc solvents. Contaminated liquid formulations were incubated at 37 °C overnight and replated onto agar plates to assess growth.

[7] = Thermal stability of proteins in PFNA/PFOc (bioactivity after heating); assay type: physicochemical; conditions: PFNA/PFOc mixture compared to aqueous solution, 30 min heating
Procedure: FIGS. 16A-16C depict that the thermal stability of β-gal, GFP, and Trypsin is enhanced when the proteins are dissolved in a PFNA/PFOc mixture, compared to aqueous solutions of the proteins.
PFNA enhanced thermal stability in PFOc Differential scanning calorimetry (DSC) measurements were performed on 5 test proteins dissolved in either PBS (Aq.) or Perfluorooctane (PFOc). PFNA dispersant was added only for the PFOc conditions. DSC was performed at 2 °C/min ramp from 40 °C-100 °C. Melting temperature (Tm) was determined based on positive inflection of heat capacity curve, indicating protein unfolding (FIG. 15). Change in melting temperature (ATm (°C)) represented the difference in Tm between aqueous (Aq.) and PFOc data. Tm for GFP in PFOc could not be achieved at the maximum temperature of 100 °C for the DSC experiments. Each protein was dissolved in PBS (Aq.) or PFNA/PFOc mixture. Dissolved proteins were heated to 75 °C (β-gal), 90 °C (GFP) or 80 °C (Trypsin); treatment temperatures were determined based on aqueous melting temperatures for each protein. Positive controls were maintained at room temperature (25 °C). […] Bioactivity was evaluated then via fluorescence measurements for GFP, or using colorimetric substrate conversion assays (ONPG for β-gal, BAEE for Trypsin). […]

[8] = Protein activity after elevated temperature exposure (Example 4); assay type: physicochemical; conditions: 90 °C for 30 minutes
Procedure: A group of enzyme proteins, β-Gal and Trypsin was chosen for this study. β-Gal and Trypsin were diluted in PBS or dispersed in PFOc at 1 μM and 10 μM, respectively. Next, a subset of samples was subjected to elevated temperature condition (90 °C) well beyond their native denaturation temperature for 30 minutes. After that, samples were allowed to cool down to room temperature before retrieval. For PFOc samples, proteins were extracted into PBS before performing the ensuing assays. To determine the enzymatic activity, an equal volume of protein samples was added to their substrates dissolved in PBS (4 mg/mL ONPG for β-Gal or 1 mg/mL BAEE for Trypsin). After incubation, ONPG and BAEE substrate conversions were measured by taking absorbance using a microplate reader at 420 nm or 400 nm, respectively. In case of intrinsic fluorescence, GFP was similarly prepared, and heat treated. After GFP samples were retrieved, fluorescent intensity was taken at λex=490 nm, λem=520 nm. The change in protein activity was presented by normalizing to spectrometric readings of each protein dissolved in PBS without being subjected to heat (room temperature). […] This supports the assertion that the fluorous coating and solvent environments, together, serve to constrain the conformational flexibility of the dispersed protein and, as a result, increase its melting temperature.

[9] = dispersed in PFOc using PD-7, heated up to 85 °C

O=C(O)C1(F)C(F)(F)C(F)(F)C(F)(F)C(F)(F)C1(F)F [Compound 13, perfluorocyclohexanecarboxylic acid]
capacity to disperse proteins into PFH / association with proteins (in words) [1]: capacity to disperse many of the protein candidates into PFH

O=C(O)C(F)(F)C(F)(F)C(F)(F)C(F)(F)C(F)(F)C(F)(F)C(F)(F)F [Compound 6, perfluorooctanoic acid]
capacity to disperse proteins into PFH / association with proteins (in words) [1]: significantly compromised its association with most proteins

2,2-(1,1,1,2,2,3,3,4,4,5,5,6,6-tridecafluorooctane)-2-cyanoacetic acid [Compound 21]
IC50 [2]: 610 µM

O=C(O)C(F)(F)C(F)(F)C(F)(F)C(F)(F)C(F)(F)C(F)(F)C(F)(F)C(F)(F)C(F)(F)C(F)(F)C(F)(F)C(F)(F)C(F)(F)F [Compound 11, perfluorotetradecanoic acid]
dispersion efficiency of β-Gal (in words) [3]: sharp drop off in dispersion efficiency

NCC(F)(F)C(F)(F)C(F)(F)C(F)(F)C(F)(F)C(F)(F)C(F)(F)C(F)(F)F [Compound 20, 1H,1H-perfluorononylamine]
capacity to disperse proteins into PFH / association with proteins (in words) [1]: capacity to disperse many of the protein candidates into PFH

O=C(O)C(F)(F)C(F)(F)C(F)(F)C(F)(F)C(F)(F)C(F)(F)C(F)(F)C(F)(F)C(F)(F)C(F)(F)C(F)(F)F [Compound 10, perfluorododecanoic acid]
dispersion efficiency of β-Gal (in words) [3]: stepwise increase in dispersion efficiency

O=S(=O)(O)C(F)(F)C(F)(F)C(F)(F)C(F)(F)C(F)(F)C(F)(F)C(F)(F)C(F)(F)F [Compound 17, perfluorooctanesulfonic acid]
capacity to disperse proteins into PFH / association with proteins (in words) [1]: capacity to disperse many of the protein candidates into PFH

BSA: bovine serum albumin (BSA)
E. coli colony growth after contamination ([4]; BSA in PBS): Visible E. coli colony growth
sterility after contamination ([4]; BSA in PFOc (containing PFNA)): remained sterile
change in secondary structure [5, 9]: minimal changes in secondary structure
contamination ([6]; BSA in PBS): readily contaminated by all five pathogens
sterility after contamination ([6]; BSA in PFOc): remained sterile

O=C(O)C(F)(F)C(F)(F)C(F)(F)C(F)(F)C(F)(F)C(F)(F)C(F)(F)C(F)(F)C(F)(F)F [Compound 8, perfluorodecanoic acid]
capacity to disperse proteins into PFH / association with proteins (in words) [1]: significantly compromised its association with most proteins

B1: Trypsin: bovine trypsin (protein, UniProt P00760 24-246, looked up)
Serine protease 1: IVGGYTCGANTVPYQVSLNSGYHFCGGSLINSQWVVSAAHCYKSGIQVRLGEDNINVVEGNEQFISASKSIVHPSYNSNTLNNDIMLIKLKSAASLNSRVASISLPTSCASAGTQCLISGWGNTKSSGTSYPDVLKCLKAPILSDSSCKSAYPGQITSNMFCAGYLEGGKDSCQGDSGGPVVCSGKLQGIVSWGSGCAQKNKPGVYTKVCNYVSWIKQTIASN
thermal stability [7]: enhanced
change in secondary structure [5, 9]: minimal changes in secondary structure
change in secondary structure ([5]; saline (PBS) control, 40-85 °C): minimal change in structure
change in activity after heating ([8]; PFOc dispersed): no statistically significant change in activity
loss of bioactivity after heating ([8]; saline): > 90%
